# Experimental data published in patent US20080044436A1, “Method for Screening and Compositions for Treating Cancers” (priority 2004, published 2008).
# System: TReP-132 mRNA
# Assay: Quantitative RT-PCR of TReP-132 mRNA in T47-D cells
# Format: cell-based, human
# Conditions: 30 nM progesterone, 48 hours of exposure
# Method: Total RNA from T47-D cells treated or not with progesterone was reverse transcribed and TReP-132 transcript levels were measured by quantitative RT-PCR as described in Gizard et al. (2004) using primers specific for […] and [NT]). […] Transfection was carried out by using the GeneSilencer reagent (Gene Therapy Systems, San Diego, USA) as directed by the manufacturer. Transfection efficiency was verified by FACS analysis (Fluorescence-Activated Cell Sorting) (see below). […] Statistical analyses were carried out with the nonparametric Kruskal-Wallis test.
smiles,measurement,value
"CC(=O)[C@H]1CC[C@H]2[C@@H]3CCC4=CC(=O)CC[C@]4(C)[C@H]3CC[C@]12C [progesterone, reference compound]","TReP-132 mRNA levels, peak increase",3 fold
